Test results as given in patent US10870647B2, “Imidazopyridine derivative, method for preparing same, and pharmaceutical composition containing same as active ingredient for preventing or treating cancer” (DAEGU-GYEONGBUK MEDICAL INNOVATION FOUNDATION, priority 2016, dated 2020).

How the values were obtained:
Test in all cases: Kinase selectivity, scanMAX Kinase assay panel (DiscoverX), % control at 1 uM
Format in all cases: binding
[1] = molecular target: T1, scanMAX Kinase assay panel (Homo sapiens, UniProt P53355); conditions: DAPK1; 1 uM; read-out: Percent Control (%)
T1 construct: purchased DiscoverX
How it was run: (§1)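 Single-point screen at 1 uM compound in DMSO. Lower % control means stronger inhibition, with the cutoff for activity set at <35%.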

[2] = molecular target: T2, scanMAX Kinase assay panel (Homo sapiens, UniProt Q9NYY3); conditions: PLK2; 1 uM; read-out: Percent Control (%)
T2 construct: purchased DiscoverX
How it was run: as §1

[3] = molecular target: T3, scanMAX Kinase assay panel (Homo sapiens, UniProt Q9UM73, C1156Y); conditions: ALK (C1156Y); 1 uM; read-out: Percent Control (%)
T3 construct: purchased DiscoverX
How it was run: as §1

[4] = molecular target: T4, scanMAX Kinase assay panel (Homo sapiens, UniProt Q86UE8); conditions: TLK2; 1 uM; read-out: Percent Control (%)
T4 construct: purchased DiscoverX
How it was run: as §1

[5] = molecular target: T5, scanMAX Kinase assay panel (Homo sapiens, UniProt Q9BXA7); conditions: TSSK1B; 1 uM; read-out: Percent Control (%)
T5 construct: purchased DiscoverX
T5 sequence (Q9BXA7 1-367): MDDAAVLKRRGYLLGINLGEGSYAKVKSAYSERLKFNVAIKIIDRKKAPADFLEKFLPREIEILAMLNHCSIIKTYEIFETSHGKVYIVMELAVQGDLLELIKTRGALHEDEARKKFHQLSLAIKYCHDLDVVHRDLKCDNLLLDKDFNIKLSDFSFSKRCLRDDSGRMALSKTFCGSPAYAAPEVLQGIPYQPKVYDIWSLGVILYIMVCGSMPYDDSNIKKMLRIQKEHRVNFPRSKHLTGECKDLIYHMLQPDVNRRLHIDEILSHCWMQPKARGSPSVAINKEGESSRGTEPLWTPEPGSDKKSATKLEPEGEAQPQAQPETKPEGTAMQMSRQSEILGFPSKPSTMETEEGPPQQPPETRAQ
How it was run: as §1

[6] = molecular target: T6, scanMAX Kinase assay panel (Homo sapiens, UniProt P32298); conditions: GRK4; 1 uM; read-out: Percent Control (%)
T6 construct: purchased DiscoverX
How it was run: as §1

[7] = molecular target: T7, scanMAX Kinase assay panel (Homo sapiens, UniProt Q8IVH8); conditions: MAP4K3; 1 uM; read-out: Percent Control (%)
T7 construct: purchased DiscoverX
T7 sequence (Q8IVH8 1-894): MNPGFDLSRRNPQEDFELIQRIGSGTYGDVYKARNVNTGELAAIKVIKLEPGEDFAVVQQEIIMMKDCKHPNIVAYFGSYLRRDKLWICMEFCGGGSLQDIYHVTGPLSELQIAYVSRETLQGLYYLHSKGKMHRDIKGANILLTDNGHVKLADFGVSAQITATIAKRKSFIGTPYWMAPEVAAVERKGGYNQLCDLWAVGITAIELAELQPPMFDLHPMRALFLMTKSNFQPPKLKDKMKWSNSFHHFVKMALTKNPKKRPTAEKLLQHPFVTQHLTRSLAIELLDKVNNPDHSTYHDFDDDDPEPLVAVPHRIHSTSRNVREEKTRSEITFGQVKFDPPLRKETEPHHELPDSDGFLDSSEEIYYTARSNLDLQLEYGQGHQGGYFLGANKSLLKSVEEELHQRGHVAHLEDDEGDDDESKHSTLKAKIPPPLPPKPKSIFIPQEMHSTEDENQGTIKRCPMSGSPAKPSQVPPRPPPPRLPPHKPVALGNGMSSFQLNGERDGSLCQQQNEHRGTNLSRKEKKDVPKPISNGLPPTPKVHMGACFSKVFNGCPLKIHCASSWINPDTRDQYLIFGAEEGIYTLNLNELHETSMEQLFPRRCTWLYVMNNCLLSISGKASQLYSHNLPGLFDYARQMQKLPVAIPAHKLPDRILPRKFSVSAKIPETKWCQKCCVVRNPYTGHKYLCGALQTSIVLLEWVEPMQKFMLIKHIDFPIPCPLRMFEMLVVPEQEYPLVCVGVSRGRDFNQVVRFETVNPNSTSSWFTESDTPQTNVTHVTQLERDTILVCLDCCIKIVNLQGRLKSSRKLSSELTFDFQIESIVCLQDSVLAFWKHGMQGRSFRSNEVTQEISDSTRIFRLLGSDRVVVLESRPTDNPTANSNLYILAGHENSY
How it was run: as §1

[8] = molecular target: T8, scanMAX Kinase assay panel (Homo sapiens, UniProt Q00536); conditions: PCTK1; 1 uM; read-out: Percent Control (%)
T8 construct: purchased DiscoverX
How it was run: as §1

[9] = molecular target: T9, scanMAX Kinase assay panel (Homo sapiens, UniProt Q16513); conditions: PKN2; 1 uM; read-out: Percent Control (%)
T9 construct: purchased DiscoverX
How it was run: as §1

T4 sequence (Q86UE8 whole entry): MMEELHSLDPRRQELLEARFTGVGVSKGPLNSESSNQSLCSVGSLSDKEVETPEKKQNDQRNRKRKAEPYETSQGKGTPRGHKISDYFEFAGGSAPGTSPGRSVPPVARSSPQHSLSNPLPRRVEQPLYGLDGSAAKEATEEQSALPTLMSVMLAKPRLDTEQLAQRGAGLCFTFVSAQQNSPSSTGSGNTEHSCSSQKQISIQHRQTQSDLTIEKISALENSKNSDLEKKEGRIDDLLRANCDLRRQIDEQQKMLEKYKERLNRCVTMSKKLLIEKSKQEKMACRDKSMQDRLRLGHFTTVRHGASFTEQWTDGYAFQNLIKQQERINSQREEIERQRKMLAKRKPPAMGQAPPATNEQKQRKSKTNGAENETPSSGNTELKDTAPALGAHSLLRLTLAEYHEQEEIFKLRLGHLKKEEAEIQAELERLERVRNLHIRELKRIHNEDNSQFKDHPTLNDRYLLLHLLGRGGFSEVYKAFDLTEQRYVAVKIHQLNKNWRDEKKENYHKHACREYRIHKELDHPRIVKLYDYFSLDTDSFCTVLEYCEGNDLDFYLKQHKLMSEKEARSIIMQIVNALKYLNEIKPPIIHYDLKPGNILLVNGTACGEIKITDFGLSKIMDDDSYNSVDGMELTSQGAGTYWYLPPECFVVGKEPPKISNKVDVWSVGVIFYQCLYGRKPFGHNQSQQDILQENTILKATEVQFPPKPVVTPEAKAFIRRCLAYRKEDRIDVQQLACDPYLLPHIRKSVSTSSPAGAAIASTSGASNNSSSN
T3 sequence (Q9UM73 19-1620 C1156Y): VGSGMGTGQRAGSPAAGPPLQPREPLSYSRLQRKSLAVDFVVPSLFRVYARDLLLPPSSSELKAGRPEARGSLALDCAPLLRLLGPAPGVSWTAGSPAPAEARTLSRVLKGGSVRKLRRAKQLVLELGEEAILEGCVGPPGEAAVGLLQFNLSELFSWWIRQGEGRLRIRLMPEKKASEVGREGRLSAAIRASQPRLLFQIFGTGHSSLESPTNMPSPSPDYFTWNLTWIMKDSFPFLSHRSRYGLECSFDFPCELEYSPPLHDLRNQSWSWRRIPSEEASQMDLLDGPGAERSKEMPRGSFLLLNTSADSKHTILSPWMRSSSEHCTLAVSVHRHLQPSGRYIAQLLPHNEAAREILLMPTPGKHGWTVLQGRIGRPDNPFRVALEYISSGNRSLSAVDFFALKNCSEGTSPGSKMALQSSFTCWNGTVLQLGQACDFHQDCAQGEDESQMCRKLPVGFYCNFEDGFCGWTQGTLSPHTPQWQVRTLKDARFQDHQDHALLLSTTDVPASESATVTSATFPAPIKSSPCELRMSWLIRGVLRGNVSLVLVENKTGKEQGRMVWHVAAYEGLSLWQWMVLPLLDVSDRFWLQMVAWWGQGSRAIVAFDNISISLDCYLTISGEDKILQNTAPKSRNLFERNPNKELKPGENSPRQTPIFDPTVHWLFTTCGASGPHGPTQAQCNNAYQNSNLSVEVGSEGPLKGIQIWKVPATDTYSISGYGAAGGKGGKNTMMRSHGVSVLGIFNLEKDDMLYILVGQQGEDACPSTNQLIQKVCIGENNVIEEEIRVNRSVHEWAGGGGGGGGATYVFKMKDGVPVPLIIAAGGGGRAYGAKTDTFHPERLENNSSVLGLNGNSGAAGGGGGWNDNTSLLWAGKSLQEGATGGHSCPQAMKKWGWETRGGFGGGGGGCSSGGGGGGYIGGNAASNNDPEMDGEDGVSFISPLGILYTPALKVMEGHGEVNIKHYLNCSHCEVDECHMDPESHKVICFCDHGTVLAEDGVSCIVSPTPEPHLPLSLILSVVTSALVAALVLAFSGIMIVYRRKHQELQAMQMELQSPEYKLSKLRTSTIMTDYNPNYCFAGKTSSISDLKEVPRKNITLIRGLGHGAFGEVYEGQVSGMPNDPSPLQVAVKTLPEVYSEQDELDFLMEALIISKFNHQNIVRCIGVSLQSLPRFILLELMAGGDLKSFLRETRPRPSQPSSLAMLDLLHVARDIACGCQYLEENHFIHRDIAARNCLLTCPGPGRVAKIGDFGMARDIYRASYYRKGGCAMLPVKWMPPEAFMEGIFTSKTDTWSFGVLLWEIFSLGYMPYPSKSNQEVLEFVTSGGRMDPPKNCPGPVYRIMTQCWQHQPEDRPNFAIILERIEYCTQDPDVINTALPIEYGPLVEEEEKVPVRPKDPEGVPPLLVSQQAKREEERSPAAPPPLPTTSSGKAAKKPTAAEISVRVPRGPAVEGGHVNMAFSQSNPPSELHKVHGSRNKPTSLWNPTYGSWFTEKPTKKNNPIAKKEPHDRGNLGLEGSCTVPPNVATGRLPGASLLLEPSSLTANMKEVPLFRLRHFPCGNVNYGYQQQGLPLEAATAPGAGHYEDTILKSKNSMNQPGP
T6 sequence (P32298 whole entry): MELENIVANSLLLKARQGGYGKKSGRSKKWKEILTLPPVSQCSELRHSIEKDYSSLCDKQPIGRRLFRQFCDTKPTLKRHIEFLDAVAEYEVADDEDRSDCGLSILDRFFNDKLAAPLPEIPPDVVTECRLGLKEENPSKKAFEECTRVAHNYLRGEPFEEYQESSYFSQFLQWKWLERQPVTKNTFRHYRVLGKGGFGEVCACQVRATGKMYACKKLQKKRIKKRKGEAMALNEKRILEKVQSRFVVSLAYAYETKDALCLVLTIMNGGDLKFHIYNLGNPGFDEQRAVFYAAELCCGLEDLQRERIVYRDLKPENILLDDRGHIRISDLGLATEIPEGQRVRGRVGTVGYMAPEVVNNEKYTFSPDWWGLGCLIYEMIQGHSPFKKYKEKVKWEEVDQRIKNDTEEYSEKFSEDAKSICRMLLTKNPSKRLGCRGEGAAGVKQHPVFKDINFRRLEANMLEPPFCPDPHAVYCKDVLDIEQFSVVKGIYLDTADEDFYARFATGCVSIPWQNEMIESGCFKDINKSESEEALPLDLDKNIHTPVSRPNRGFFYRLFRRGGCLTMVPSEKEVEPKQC
T9 sequence (Q16513 whole entry): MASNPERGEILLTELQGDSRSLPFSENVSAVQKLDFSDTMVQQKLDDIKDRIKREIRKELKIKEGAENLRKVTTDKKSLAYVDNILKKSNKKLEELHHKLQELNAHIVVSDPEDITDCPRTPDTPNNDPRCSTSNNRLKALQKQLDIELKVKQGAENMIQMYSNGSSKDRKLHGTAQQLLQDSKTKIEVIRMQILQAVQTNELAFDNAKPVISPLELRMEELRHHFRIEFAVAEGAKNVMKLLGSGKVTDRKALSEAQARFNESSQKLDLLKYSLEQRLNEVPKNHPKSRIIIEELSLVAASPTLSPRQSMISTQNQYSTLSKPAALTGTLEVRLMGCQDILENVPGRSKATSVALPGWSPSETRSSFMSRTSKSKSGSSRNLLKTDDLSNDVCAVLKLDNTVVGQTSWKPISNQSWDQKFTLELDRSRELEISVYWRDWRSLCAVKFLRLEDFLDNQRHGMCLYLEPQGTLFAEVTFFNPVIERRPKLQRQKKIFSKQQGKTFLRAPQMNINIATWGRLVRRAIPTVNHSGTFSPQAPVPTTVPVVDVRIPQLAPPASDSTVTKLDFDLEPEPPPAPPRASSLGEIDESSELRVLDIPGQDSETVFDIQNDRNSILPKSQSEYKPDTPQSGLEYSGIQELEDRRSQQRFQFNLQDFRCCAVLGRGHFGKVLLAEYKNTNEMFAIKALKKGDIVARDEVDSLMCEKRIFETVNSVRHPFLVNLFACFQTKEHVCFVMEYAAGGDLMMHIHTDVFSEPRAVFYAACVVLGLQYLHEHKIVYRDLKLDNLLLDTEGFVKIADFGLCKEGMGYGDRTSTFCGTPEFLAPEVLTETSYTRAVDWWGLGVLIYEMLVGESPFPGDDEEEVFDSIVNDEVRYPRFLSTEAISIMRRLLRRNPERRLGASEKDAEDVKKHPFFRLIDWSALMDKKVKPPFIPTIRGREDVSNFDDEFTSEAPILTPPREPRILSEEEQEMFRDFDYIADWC
T2 sequence (Q9NYY3 whole entry): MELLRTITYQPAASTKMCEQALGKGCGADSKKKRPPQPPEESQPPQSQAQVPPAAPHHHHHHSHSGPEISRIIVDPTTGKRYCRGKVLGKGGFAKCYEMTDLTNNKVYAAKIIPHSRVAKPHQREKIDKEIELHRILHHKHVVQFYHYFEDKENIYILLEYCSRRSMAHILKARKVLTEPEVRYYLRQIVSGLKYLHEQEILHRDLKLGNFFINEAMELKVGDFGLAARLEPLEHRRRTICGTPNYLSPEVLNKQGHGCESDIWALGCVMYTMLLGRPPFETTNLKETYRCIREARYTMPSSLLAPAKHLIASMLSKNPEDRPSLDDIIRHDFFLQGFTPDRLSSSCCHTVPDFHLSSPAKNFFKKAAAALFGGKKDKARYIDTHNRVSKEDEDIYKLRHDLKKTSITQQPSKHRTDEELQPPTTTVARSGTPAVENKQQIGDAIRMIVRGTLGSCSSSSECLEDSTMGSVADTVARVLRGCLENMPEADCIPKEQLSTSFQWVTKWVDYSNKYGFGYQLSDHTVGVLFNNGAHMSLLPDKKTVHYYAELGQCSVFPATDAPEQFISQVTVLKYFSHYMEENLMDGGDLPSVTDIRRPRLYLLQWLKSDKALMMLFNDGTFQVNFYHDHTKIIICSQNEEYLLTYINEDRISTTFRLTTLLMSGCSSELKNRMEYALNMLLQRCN

SMILES	remaining binding at 1 µM [1]	remaining binding at 1 µM [2]	remaining binding at 1 µM [3]	remaining binding at 1 µM [4]	remaining binding at 1 µM [5]	remaining binding at 1 µM [6]	remaining binding at 1 µM [7]	remaining binding at 1 µM [8]	remaining binding at 1 µM [9]
Cc1ccc(C(=O)Nc2ccc(CN3CCN(C)CC3)c(C(F)(F)F)c2)cc1C#Cc1cnc2c(Nc3cnn(C)c3)cccn12 [Example 1, 4-methyl-3-((8-((1-methyl-1H-pyrazol-4-yl)amino)imidazo[1,2-a]pyridin-3-yl)ethynyl)-N-(4-((4-methylpiperazin-1-yl)methyl)-3-(trifluoromethyl)phenyl)benzamide]	87%	84%	76%	86%	95%	100%	25%	93%	83%
Cc1cn(-c2cc(NC(=O)c3ccc(C)c(C#Cc4cnc5c(Nc6cnn(C)c6)cccn45)c3)cc(C(F)(F)F)c2)cn1 [Example 12, 4-methyl-N-(3-(4-methyl-1H-imidazol-1-yl)-5-(trifluoromethyl)phenyl)-3-((8-((1-methyl-1H-pyrazol-4-yl)amino)imidazo[1,2-a]pyridin-3-yl)ethynyl)benzamide]	80%	100%	100%	97%	61%	100%	66%	100%	83%
Cc1ccc(NC(=O)C2(C(=O)Nc3ccc(F)cc3)CC2)cc1C#Cc1cnc2c(Nc3cnn(C(C)C)c3)cccn12 [Example 78]	98%	62%	100%	100%	100%	100%	100%	100%	89%
